Test systems include NCI-H23; 786-0; SK-OV-3; OVCAR-8; NCI/ADR-RES; T47D; HCT-116; SK-MEL-5; CAKI-1; SR; UO-31; OVCAR-4; SNB-75; SK-MEL-2; RXF 393; Hs-578T; SNB-19; KM12; HL-60; NCI-H226.
What all share (assay): DTP human tumour cell line panel, 48 h

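Assay format: 96-well plates, 48-hour exposure. At the GI50, growth is halved.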 The source made the active and inactive calls. No stated cut-off is given here; in the data, active = GI50 up to about 1.1 µM and inactive = higher.

Consider `C[N+](C)(C)c1nc(N)nc2c1ncn2C1OC(CO)C(O)C1O` (centres undefined), for which the GI50 with NCI-H23, in the experiment with 786-0, in the experiment on SK-OV-3, in the experiment with OVCAR-8, in the experiment with NCI/ADR-RES and in the experiment on T47D was > 100 µM (inactive) throughout. Also, the GI50 in the experiment with HCT-116, with SK-MEL-5, in the experiment with CAKI-1, with SR, with UO-31 and with OVCAR-4 was > 100 µM (inactive) throughout. In addition, the GI50 in the experiment with SNB-75, in the experiment with SK-MEL-2, in the experiment with RXF 393, in the experiment on Hs-578T, with SNB-19 and with KM12 was > 100 µM (inactive) in each case.
Consider `CCC1(COC(NC(=O)c2ccccc2)(C(F)(F)F)C(F)(F)F)COC1`, for which the GI50 in the experiment on NCI-H23, in the experiment with 786-0, in the experiment on SK-OV-3, with OVCAR-8, with NCI/ADR-RES and in the experiment on T47D was > 100 µM (inactive) in each case. For the same compound, the GI50 with HL-60, with HCT-116, in the experiment with SK-MEL-5, in the experiment on CAKI-1, in the experiment on SR and in the experiment on UO-31 was > 100 µM (inactive) each time. Also, the GI50 with SNB-75, in the experiment on SK-MEL-2, in the experiment on RXF 393, in the experiment on Hs-578T and in the experiment with SNB-19 was > 100 µM (inactive) each time.
As to `CC(=O)c1cc2c(s1)C(=O)c1sccc1C2=O`, the GI50 is 0.0184 µM (active) in the experiment with NCI-H23; 0.195 µM (active) in the experiment with 786-0; 1.73 µM (inactive) in the experiment on SK-OV-3; 0.0738 µM (active) in the experiment with OVCAR-8; 0.056 µM (active) with NCI/ADR-RES; 0.222 µM (active) with T47D. Besides, the GI50 with HCT-116 was 0.0698 µM (active); with SK-MEL-5, < 0.0113 µM (active); in the experiment on CAKI-1 it was 0.212 µM (active); in the experiment on SR it was 0.0133 µM (active); in the experiment with NCI-H226 it was 0.198 µM (active); with UO-31, 0.0314 µM (active). Moreover, the GI50 in the experiment on OVCAR-4 is 0.0706 µM (active); in the experiment on SNB-75, 0.0204 µM (active); with SK-MEL-2 it was 0.076 µM (active); with RXF 393 it was 0.0254 µM (active); with Hs-578T, 0.0365 µM (active); with SNB-19, 0.0766 µM (active). Also, in the experiment with KM12, the GI50 is 0.118 µM (active).
`Cc1cccc(C[C@@]2(SCc3ccccc3)C(C)(C)[C@@H]3CC[C@@]2(C)C3)n1`: the GI50 in the experiment on NCI-H23 is 13.9 µM (inactive); with 786-0 it was 17.6 µM (inactive); in the experiment with SK-OV-3, 20.4 µM (inactive); in the experiment with OVCAR-8 it was 16.5 µM (inactive); with NCI/ADR-RES, 13.8 µM (inactive); in the experiment on T47D, 7.26 µM (inactive). Further, the GI50 was 13.3 µM (inactive) in the experiment on HL-60; 14.7 µM (inactive) in the experiment on HCT-116; 15.9 µM (inactive) with SK-MEL-5; 16.7 µM (inactive) in the experiment with CAKI-1; 14.6 µM (inactive) in the experiment on SR; 19.4 µM (inactive) in the experiment with UO-31. The GI50 with SNB-75 was 15.2 µM (inactive); in the experiment on SK-MEL-2 it was 13.9 µM (inactive); in the experiment on RXF 393, 16.3 µM (inactive); in the experiment on Hs-578T it was 19.7 µM (inactive); in the experiment on SNB-19, 16.3 µM (inactive); in the experiment with KM12, 16.4 µM (inactive).
Regarding `Cc1nc2c(=O)n(C)c(=O)nc-2n(CCO)c1C`, the GI50 in the experiment with NCI-H23, with 786-0, in the experiment on SK-OV-3, in the experiment with OVCAR-8, in the experiment with NCI/ADR-RES and with T47D was > 100 µM (inactive) throughout. In addition, the GI50 with HCT-116, in the experiment on SK-MEL-5, in the experiment with CAKI-1, in the experiment with SR, in the experiment with NCI-H226 and in the experiment on UO-31 was > 100 µM (inactive) throughout. In addition, the GI50 in the experiment with OVCAR-4, in the experiment on SNB-75, in the experiment with SK-MEL-2, in the experiment on RXF 393, in the experiment with Hs-578T and with SNB-19 was > 100 µM (inactive) each time. Moreover, in the experiment with KM12, the GI50 was > 100 µM (inactive).
Regarding `CCCCCN1C(=O)C(Cc2ccccc2)N=C(c2ccc(O)cc2)c2cc(Cl)ccc21` (centres undefined), the GI50 with NCI-H23 was 4.98 µM (inactive); in the experiment on 786-0, 13.6 µM (inactive); in the experiment with SK-OV-3, 18.6 µM (inactive); in the experiment on OVCAR-8, 8.87 µM (inactive); in the experiment on NCI/ADR-RES, 8.11 µM (inactive); with T47D, 3.72 µM (inactive). In addition, the GI50 in the experiment with HL-60 was 2.98 µM (inactive); in the experiment with HCT-116 it was 7.94 µM (inactive); in the experiment with CAKI-1, 13.8 µM (inactive); in the experiment on SR, 2.97 µM (inactive); in the experiment with NCI-H226, 7.43 µM (inactive); with UO-31, 10.4 µM (inactive). In addition, the GI50 was 7.73 µM (inactive) in the experiment on OVCAR-4; 4.61 µM (inactive) in the experiment with SNB-75; 14.6 µM (inactive) in the experiment with SK-MEL-2; 7.53 µM (inactive) in the experiment on Hs-578T; 14.5 µM (inactive) in the experiment with SNB-19; 10.1 µM (inactive) in the experiment with KM12.
Regarding `C#CCOCn1ccc(=O)[nH]c1=O`, the GI50 with NCI-H23, with 786-0, in the experiment on SK-OV-3, in the experiment on OVCAR-8, with NCI/ADR-RES and in the experiment on T47D was > 100 µM (inactive) each time. In addition, the GI50 with HL-60, in the experiment with HCT-116, with SK-MEL-5, with CAKI-1, in the experiment on SR and in the experiment with NCI-H226 was > 100 µM (inactive) in each case. Also, the GI50 with UO-31, with OVCAR-4, in the experiment with SNB-75, in the experiment on SK-MEL-2, in the experiment on Hs-578T and with SNB-19 was > 100 µM (inactive) each time. The GI50 in the experiment with KM12 was > 100 µM (inactive).
Consider `Cc1cc(S(=O)(=O)O)ccc1/N=N/c1c(O)ccc2ccccc12`, for which the GI50 in the experiment on NCI-H23, with 786-0, in the experiment on SK-OV-3, with OVCAR-8, in the experiment with NCI/ADR-RES and in the experiment with T47D was > 100 µM (inactive) in each case. Besides, the GI50 in the experiment on HL-60, with HCT-116, with SK-MEL-5, in the experiment on CAKI-1, in the experiment on NCI-H226 and with UO-31 was > 100 µM (inactive) in each case. Also, the GI50 with OVCAR-4, in the experiment on SNB-75, with SK-MEL-2, in the experiment with RXF 393, with Hs-578T and in the experiment on SNB-19 was > 100 µM (inactive) each time. For the same compound, the GI50 with KM12 is > 100 µM (inactive).
As to `C=C1CC(Cn2ccc(=O)[nH]c2=O)(c2ccc(Cl)cc2)OC1=O` (centres undefined), the GI50 in the experiment with NCI-H23 was 5.48 µM (inactive); in the experiment on 786-0, 2.04 µM (inactive); with SK-OV-3, 15 µM (inactive); in the experiment with OVCAR-8 it was 7.87 µM (inactive); in the experiment on NCI/ADR-RES, 4.56 µM (inactive); in the experiment on T47D it was 3.03 µM (inactive). For the same compound, the GI50 in the experiment on HL-60 is 8.47 µM (inactive); with HCT-116, 2.3 µM (inactive); with SK-MEL-5 it was 3.05 µM (inactive); in the experiment with CAKI-1, 2.42 µM (inactive); with SR, 2.02 µM (inactive); in the experiment on NCI-H226, 22.9 µM (inactive). The GI50 with UO-31 is 18 µM (inactive); with OVCAR-4, 1.88 µM (inactive); with SNB-75, 15.1 µM (inactive); in the experiment with SK-MEL-2 it was 5.65 µM (inactive); with Hs-578T it was 10.5 µM (inactive); with SNB-19, 31.4 µM (inactive). Besides, in the experiment with KM12, the GI50 is 14 µM (inactive).
Consider `CC(C)(O)CO/N=C1\C(=C2\C(=O)Nc3ccccc32)Nc2ccccc21`, for which the GI50 is 1.18 µM (inactive) in the experiment on NCI-H23; 10.7 µM (inactive) in the experiment on 786-0; 0.158 µM (active) in the experiment on SK-OV-3; 1.15 µM (inactive) in the experiment on OVCAR-8; 1.33 µM (inactive) in the experiment on NCI/ADR-RES; 0.631 µM (active) in the experiment with T47D. Besides, the GI50 was 0.74 µM (active) in the experiment with HL-60; 6.28 µM (inactive) with HCT-116; 0.423 µM (active) with SK-MEL-5; 0.112 µM (active) with CAKI-1; 0.594 µM (active) with SR; 0.348 µM (active) in the experiment with UO-31. Moreover, the GI50 was 2.94 µM (inactive) in the experiment with OVCAR-4; 0.811 µM (active) with SNB-75; 0.232 µM (active) with SK-MEL-2; 0.279 µM (active) with RXF 393; 0.867 µM (active) in the experiment on Hs-578T; 4.24 µM (inactive) in the experiment with SNB-19. Moreover, the GI50 in the experiment with KM12 was < 0.01 µM (active).
Regarding `C/C(=N/NC(N)=S)c1ccc[nH]1`, the GI50 with NCI-H23 is > 100 µM (inactive); in the experiment on 786-0, > 100 µM (inactive); in the experiment with SK-OV-3 it was > 100 µM (inactive); in the experiment with OVCAR-8 it was > 100 µM (inactive); in the experiment on NCI/ADR-RES, > 100 µM (inactive); in the experiment on T47D, 84.3 µM (inactive). In addition, the GI50 with HL-60, with HCT-116, in the experiment on SK-MEL-5, in the experiment on CAKI-1, in the experiment with NCI-H226 and in the experiment on UO-31 was > 100 µM (inactive) throughout. Further, the GI50 in the experiment with OVCAR-4 was 78.9 µM (inactive); in the experiment on SNB-75 it was > 100 µM (inactive); with SK-MEL-2 it was > 100 µM (inactive); in the experiment on RXF 393, > 100 µM (inactive); with Hs-578T, > 100 µM (inactive); in the experiment on SNB-19 it was > 100 µM (inactive). Also, the GI50 in the experiment with KM12 was > 100 µM (inactive).

Source of the values: ChEMBL document CHEMBL1201862, “PubChem BioAssay data set” (2004).
